Source: patent publication US9738634B2, “Heterocyclic amide compound and herbicide” (SYNGENTA PARTICIPATIONS AG, priority 2013, dated 2017)

How the values were obtained:
Type in all cases: in vivo
Conditions in all cases: treatment dosage 320 g/ha
bulrush [1] = test: Test Example 1: weedkilling efficacy, preemergent weed treatment in the submerged state; B: bulrush
Outline: (§1)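 Alluvial soil in Wagner pots flooded to 4 cm; barnyard grass, bulrush and oval-leafed pondweed seeds sown, then 2.5-leaf rice seedlings transplanted. Same day, emulsified compound diluted in water to set g/ha dosages and applied to water surface; greenhouse 25–30 °C, effect scored by criteria after 3 weeks.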

wild oat [2] = test: Test Example 3: weedkilling efficacy through soil treatment; G: wild oat
Outline: (§2)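 Crop and weed responses were judged three weeks after a uniform surface spray of the water-diluted emulsion at the given g/ha rate. Seeds sat beneath about 1.5 cm of sterilized diluvial soil, and boxes stood in a greenhouse at 25 to 30° C.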

birds-eye speedwell = test: Test Example 4: weedkilling efficacy by foliar treatment; p: birds-eye speedwell
Outline: (§3)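 Seeds are spot-sown into sterilized diluvial soil and covered with about 1.5 cm of soil. After 14 days' greenhouse growth at 25 to 30° C, plants are sprayed on stems and leaves with diluted emulsion at the stated g/ha rate, then scored at 3 weeks.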

barnyard grass [3] = test: Test Example 4: weedkilling efficacy by foliar treatment; F: barnyard grass
Outline: as §3

oval-leafed pondweed [4] = test: Test Example 2: weedkilling efficacy, growth period weed treatment in the submerged state; C: oval-leafed pondweed
Outline: (§4)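 First, alluvial soil in pots is flooded to 4 cm and mixed seed is sown. Next, plants grow in a greenhouse at 25 to 30° C until the 1-2 leaf stage. Then diluted emulsion is applied onto the water surface at the given g/ha rate, and injury is assessed after 3 weeks.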

Italian ryegrass [5] = test: Test Example 3: weedkilling efficacy through soil treatment; I: Italian ryegrass
Outline: as §2

black-grass [6] = test: Test Example 4: weedkilling efficacy by foliar treatment; H: black-grass
Outline: as §3

fig-leafed goosefoot [7] = test: Test Example 4: weedkilling efficacy by foliar treatment; M: fig-leafed goosefoot
Outline: as §3

green foxtail [8] = test: Test Example 3: weedkilling efficacy through soil treatment; E: green foxtail
Outline: as §2

corn [9] = test: Test Example 3: soil treatment, effect on crop; c: corn
Outline: as §2

chickweed [10] = test: Test Example 4: weedkilling efficacy by foliar treatment; N: chickweed
Outline: as §3

bulrush [11] = test: Test Example 2: weedkilling efficacy, growth period weed treatment in the submerged state; B: bulrush
Outline: as §4

Italian ryegrass [12] = test: Test Example 4: weedkilling efficacy by foliar treatment; I: Italian ryegrass
Outline: as §3

wheat [13] = test: Test Example 3: soil treatment, effect on crop; e: wheat
Outline: as §2

catchweed = test: Test Example 4: weedkilling efficacy by foliar treatment; O: catchweed
Outline: as §3

directly sown rice [14] = test: Test Example 3: soil treatment, effect on crop; b: directly sown rice
Outline: as §2

beet [15] = test: Test Example 4: foliar treatment, effect on crop; f: beet
Outline: as §3

fig-leafed goosefoot [16] = test: Test Example 3: weedkilling efficacy through soil treatment; M: fig-leafed goosefoot
Outline: as §2

transplanted rice = test: Test Example 1: preemergent weed treatment in the submerged state, effect on crop; a: transplanted rice
Outline: as §1

directly sown rice [17] = test: Test Example 4: foliar treatment, effect on crop; b: directly sown rice
Outline: as §3

wild oat [18] = test: Test Example 4: weedkilling efficacy by foliar treatment; G: wild oat
Outline: as §3

redroot pigweed [19] = test: Test Example 3: weedkilling efficacy through soil treatment; L: redroot pigweed
Outline: as §2

barnyard grass [20] = test: Test Example 1: weedkilling efficacy, preemergent weed treatment in the submerged state; A: barnyard grass
Outline: as §1

barnyard grass [21] = test: Test Example 3: weedkilling efficacy through soil treatment; F: barnyard grass
Outline: as §2

crabgrass [22] = test: Test Example 3: weedkilling efficacy through soil treatment; D: crabgrass
Outline: as §2

corn [23] = test: Test Example 4: foliar treatment, effect on crop; c: corn
Outline: as §3

soybean [24] = test: Test Example 4: foliar treatment, effect on crop; d: soybean
Outline: as §3

rapeseed [25] = test: Test Example 3: soil treatment, effect on crop; g: rapeseed
Outline: as §2

oval-leafed pondweed [26] = test: Test Example 1: weedkilling efficacy, preemergent weed treatment in the submerged state; C: oval-leafed pondweed
Outline: as §1

wheat [27] = test: Test Example 4: foliar treatment, effect on crop; e: wheat
Outline: as §3

crabgrass [28] = test: Test Example 4: weedkilling efficacy by foliar treatment; D: crabgrass
Outline: as §3

green foxtail [29] = test: Test Example 4: weedkilling efficacy by foliar treatment; E: green foxtail
Outline: as §3

redroot pigweed [30] = test: Test Example 4: weedkilling efficacy by foliar treatment; L: redroot pigweed
Outline: as §3

soybean [31] = test: Test Example 3: soil treatment, effect on crop; d: soybean
Outline: as §2

Indian mallow [32] = test: Test Example 3: weedkilling efficacy through soil treatment; K: Indian mallow
Outline: as §2

rapeseed [33] = test: Test Example 4: foliar treatment, effect on crop; g: rapeseed
Outline: as §3

barnyard grass [34] = test: Test Example 2: weedkilling efficacy, growth period weed treatment in the submerged state; A: barnyard grass
Outline: as §4

beet [35] = test: Test Example 3: soil treatment, effect on crop; f: beet
Outline: as §2

chickweed [36] = test: Test Example 3: weedkilling efficacy through soil treatment; N: chickweed
Outline: as §2

Indian mallow [37] = test: Test Example 4: weedkilling efficacy by foliar treatment; K: Indian mallow
Outline: as §3

common wind-grass [38] = test: Test Example 4: weedkilling efficacy by foliar treatment; J: common wind-grass
Outline: as §3

common wind-grass [39] = test: Test Example 3: weedkilling efficacy through soil treatment; J: common wind-grass
Outline: as §2

black-grass [40] = test: Test Example 3: weedkilling efficacy through soil treatment; H: black-grass
Outline: as §2

SMILES: CC1=C(c2cccnc2F)C(=O)N(C(C)(C)C(=O)Nc2cc(C(F)(F)F)cc(F)n2)CO1 [B-2-13]
- B (bulrush) weedkilling efficacy grade (bulrush [1]): 5 (weed kill ratio 90% or more, (practically complete withering))
- G (wild oat) weedkilling efficacy grade (wild oat [2]): 5 (weed kill ratio 90% or more, (practically complete withering))
- P (birds-eye speedwell) weedkilling efficacy grade (birds-eye speedwell): 5 (weed kill ratio 90% or more, (practically complete withering))
- F (barnyard grass) weedkilling efficacy grade (barnyard grass [3]): 5 (weed kill ratio 90% or more, (practically complete withering))
- C (oval-leafed pondweed) weedkilling efficacy grade (oval-leafed pondweed [4]): 5 (weed kill ratio 90% or more, (practically complete withering))
- I (Italian ryegrass) weedkilling efficacy grade (Italian ryegrass [5]): 5 (weed kill ratio 90% or more, (practically complete withering))
- H (black-grass) weedkilling efficacy grade (black-grass [6]): 5 (weed kill ratio 90% or more, (practically complete withering))
- M (fig-leafed goosefoot) weedkilling efficacy grade (fig-leafed goosefoot [7]): 4 (weed kill ratio 70% or more, less than 90%)
- E (green foxtail) weedkilling efficacy grade (green foxtail [8]): 5 (weed kill ratio 90% or more, (practically complete withering))
- c (corn) effect on crop grade (corn [9]): 1 (weed kill ratio 5% or more, less than 20%)
- N (chickweed) weedkilling efficacy grade (chickweed [10]): 4 (weed kill ratio 70% or more, less than 90%)
- B (bulrush) weedkilling efficacy grade (bulrush [11]): 5 (weed kill ratio 90% or more, (practically complete withering))
- I (Italian ryegrass) weedkilling efficacy grade (Italian ryegrass [12]): 5 (weed kill ratio 90% or more, (practically complete withering))
- e (wheat) effect on crop grade (wheat [13]): 0 (weed kill ratio 5% or less (practically no effect))
- O (catchweed) weedkilling efficacy grade (catchweed): 5 (weed kill ratio 90% or more, (practically complete withering))
- b (directly sown rice) effect on crop grade (directly sown rice [14]): 5 (weed kill ratio 90% or more, (practically complete withering))
- f (beet) effect on crop grade (beet [15]): 4 (weed kill ratio 70% or more, less than 90%)
- M (fig-leafed goosefoot) weedkilling efficacy grade (fig-leafed goosefoot [16]): 3 (weed kill ratio 40% or more, less than 70%)
- a (transplanted rice) effect on crop grade (transplanted rice): 1 (weed kill ratio 5% or more, less than 20%)
- b (directly sown rice) effect on crop grade (directly sown rice [17]): 3 (weed kill ratio 40% or more, less than 70%)
- G (wild oat) weedkilling efficacy grade (wild oat [18]): 3 (weed kill ratio 40% or more, less than 70%)
- L (redroot pigweed) weedkilling efficacy grade (redroot pigweed [19]): 4 (weed kill ratio 70% or more, less than 90%)
- A (barnyard grass) weedkilling efficacy grade (barnyard grass [20]): 5 (weed kill ratio 90% or more, (practically complete withering))
- F (barnyard grass) weedkilling efficacy grade (barnyard grass [21]): 5 (weed kill ratio 90% or more, (practically complete withering))
- D (crabgrass) weedkilling efficacy grade (crabgrass [22]): 5 (weed kill ratio 90% or more, (practically complete withering))
- c (corn) effect on crop grade (corn [23]): 4 (weed kill ratio 70% or more, less than 90%)
- d (soybean) effect on crop grade (soybean [24]): 4 (weed kill ratio 70% or more, less than 90%)
- g (rapeseed) effect on crop grade (rapeseed [25]): 4 (weed kill ratio 70% or more, less than 90%)
- C (oval-leafed pondweed) weedkilling efficacy grade (oval-leafed pondweed [26]): 5 (weed kill ratio 90% or more, (practically complete withering))
- e (wheat) effect on crop grade (wheat [27]): 0 (weed kill ratio 5% or less (practically no effect))
- D (crabgrass) weedkilling efficacy grade (crabgrass [28]): 5 (weed kill ratio 90% or more, (practically complete withering))
- E (green foxtail) weedkilling efficacy grade (green foxtail [29]): 5 (weed kill ratio 90% or more, (practically complete withering))
- L (redroot pigweed) weedkilling efficacy grade (redroot pigweed [30]): 4 (weed kill ratio 70% or more, less than 90%)
- d (soybean) effect on crop grade (soybean [31]): 0 (weed kill ratio 5% or less (practically no effect))
- K (Indian mallow) weedkilling efficacy grade (Indian mallow [32]): 0 (weed kill ratio 5% or less (practically no effect))
- g (rapeseed) effect on crop grade (rapeseed [33]): 4 (weed kill ratio 70% or more, less than 90%)
- A (barnyard grass) weedkilling efficacy grade (barnyard grass [34]): 5 (weed kill ratio 90% or more, (practically complete withering))
- f (beet) effect on crop grade (beet [35]): 4 (weed kill ratio 70% or more, less than 90%)
- N (chickweed) weedkilling efficacy grade (chickweed [36]): 3 (weed kill ratio 40% or more, less than 70%)
- K (Indian mallow) weedkilling efficacy grade (Indian mallow [37]): 5 (weed kill ratio 90% or more, (practically complete withering))
- J (common wind-grass) weedkilling efficacy grade (common wind-grass [38]): 5 (weed kill ratio 90% or more, (practically complete withering))
- J (common wind-grass) weedkilling efficacy grade (common wind-grass [39]): 5 (weed kill ratio 90% or more, (practically complete withering))
- H (black-grass) weedkilling efficacy grade (black-grass [40]): 5 (weed kill ratio 90% or more, (practically complete withering))
